Reference: patent US6362181B1, “Isoquinolones” (Warner-Lambert Company, priority 1996, dated 2002)
pIC50: −log10 of the molar value. ≈ marks a conversion by molar mass, not a printed value. Where two headings read alike, the source gives them in different places.

What was measured:
[1] = system: B. subtilis RB1; test: Antibacterial assay, standard microtitration, MIC; type: cell-based; details: Gram positive; for MIC: Bacillus subtilis, read-out: Minimum Inhibitory Concentrations, B. subtilis RB1
Procedure: (§1) The compounds of the present invention were tested against an assortment of gram negative and gram positive organisms using standard microtitration techniques (Cohen, et al., Antimicrob. Agents Chemother., 1985;28:766; Heifetz, et al. Antimicrob. Agents Chemother., 1974;6:124).

[2] = system: E. coli B90; test: Antibacterial assay, standard microtitration, MIC; type: cell-based; details: Gram negative; for MIC: Escherichia coli, read-out: Minimum Inhibitory Concentrations, E. coli B90
Procedure: as §1

[3] = system: E. coli MC4100; test: Antibacterial assay, standard microtitration, MIC; type: cell-based; details: Gram negative; for MIC: Escherichia coli, read-out: Minimum Inhibitory Concentrations, E. coli MC4100
Procedure: as §1

[4] = system: E. coli To1C; test: Antibacterial assay, standard microtitration, MIC; type: cell-based; details: for Minimum Inhibitory Concentrations, E. coli To1C: Gram negative; for MIC: Escherichia coli, TO1C, read-out: Minimum Inhibitory Concentrations, E. coli To1C
Procedure: as §1

[5] = system: S. aureus 29213; test: Antibacterial assay, standard microtitration, MIC; type: cell-based; details: Gram positive; for MIC: Staphylococcus aureus, read-out: Minimum Inhibitory Concentrations, S. aureus 29213
Procedure: as §1

[6] = system: S. pyogenes C203; test: Antibacterial assay, standard microtitration, MIC; type: cell-based; details: Gram positive; for MIC: Streptococcus pyogenes, read-out: Minimum Inhibitory Concentrations, S. pyogenes C203
Procedure: as §1

[7] = target: T1, E. coli gyrase (Escherichia coli, UniProt P0AES4+P0AES6); test: DNA gyrase supercoiling inhibition assay; type: biochemical
T1 construct: purchased Lucent, Ltd., Leicester, UK
T1 sequence (P0AES4 whole entry, one chain of several): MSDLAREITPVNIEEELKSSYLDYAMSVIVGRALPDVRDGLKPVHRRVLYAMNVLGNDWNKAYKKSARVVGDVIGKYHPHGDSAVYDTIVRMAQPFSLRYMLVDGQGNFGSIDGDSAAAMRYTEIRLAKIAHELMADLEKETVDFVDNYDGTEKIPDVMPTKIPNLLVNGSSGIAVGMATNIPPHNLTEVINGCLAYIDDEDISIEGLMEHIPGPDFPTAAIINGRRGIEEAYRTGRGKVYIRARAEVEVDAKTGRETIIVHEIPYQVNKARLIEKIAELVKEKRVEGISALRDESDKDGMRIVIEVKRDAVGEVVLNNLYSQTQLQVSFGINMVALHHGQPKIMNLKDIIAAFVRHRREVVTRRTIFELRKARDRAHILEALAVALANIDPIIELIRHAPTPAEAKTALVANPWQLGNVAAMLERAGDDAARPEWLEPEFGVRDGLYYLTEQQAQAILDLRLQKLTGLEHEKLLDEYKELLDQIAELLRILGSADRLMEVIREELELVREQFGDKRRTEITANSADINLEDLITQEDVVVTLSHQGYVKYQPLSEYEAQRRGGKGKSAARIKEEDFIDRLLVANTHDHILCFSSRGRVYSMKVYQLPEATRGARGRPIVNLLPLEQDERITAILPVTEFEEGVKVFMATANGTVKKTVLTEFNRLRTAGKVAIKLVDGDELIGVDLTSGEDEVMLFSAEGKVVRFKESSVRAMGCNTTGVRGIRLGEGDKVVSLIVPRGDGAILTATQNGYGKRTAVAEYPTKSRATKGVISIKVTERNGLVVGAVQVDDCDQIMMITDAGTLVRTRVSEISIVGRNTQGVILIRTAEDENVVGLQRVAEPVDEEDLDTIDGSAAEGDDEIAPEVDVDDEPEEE
Procedure: The effects of test agents on the activity of DNA gyrase was determined by the supercoiling inhibition assay, following reaction conditions recommended by the enzyme supplier (Lucent, Ltd., Leicester, UK), as follows. Reactions were performed in buffer G (35 mM Tris-HCL (pH 7.5), 24 mM KCl, 4 mM MgCl2, 2 mM DTT, 1.8 mM spermidine, 1 mM ATP, 0.1 mg/mL bovine serum albumin). 0.25 μg of relaxed plasmid pBR322 (Lucent, Ltd., Leicester, UK) was reacted with 1 U E. coli gyrase (Lucent, Ltd., Leicester, UK), in the absence or presence of drugs, for 30 minutes at 37° C. Reactions were stopped by the addition of SDS and proteinase K to respective final concentrations of 1% and 0.5 mg/mL. After an additional 30 minutes at 37° C., one-tenth volume of 10×loading buffer (0.3% bromophenol blue, 16% Ficoll, 10 mM Na2HPO4) was added, and reactions were loaded onto agarose gels and electrophoresed as described above for intercalation assays. The concentration of drug inhibiting 50% of the supercoiling activity of DNA gyrase is given as an IC50 and recorded in Table 2.

[8] = target: T2, E. coli topoisomerase IV (Escherichia coli, UniProt P0AFI2+P20083); test: Topoisomerase IV k-DNA decatenation assay; type: biochemical
T2 construct: made in house; host or cells: E. coli overexpressing strains
T2 sequence (P0AFI2 whole entry): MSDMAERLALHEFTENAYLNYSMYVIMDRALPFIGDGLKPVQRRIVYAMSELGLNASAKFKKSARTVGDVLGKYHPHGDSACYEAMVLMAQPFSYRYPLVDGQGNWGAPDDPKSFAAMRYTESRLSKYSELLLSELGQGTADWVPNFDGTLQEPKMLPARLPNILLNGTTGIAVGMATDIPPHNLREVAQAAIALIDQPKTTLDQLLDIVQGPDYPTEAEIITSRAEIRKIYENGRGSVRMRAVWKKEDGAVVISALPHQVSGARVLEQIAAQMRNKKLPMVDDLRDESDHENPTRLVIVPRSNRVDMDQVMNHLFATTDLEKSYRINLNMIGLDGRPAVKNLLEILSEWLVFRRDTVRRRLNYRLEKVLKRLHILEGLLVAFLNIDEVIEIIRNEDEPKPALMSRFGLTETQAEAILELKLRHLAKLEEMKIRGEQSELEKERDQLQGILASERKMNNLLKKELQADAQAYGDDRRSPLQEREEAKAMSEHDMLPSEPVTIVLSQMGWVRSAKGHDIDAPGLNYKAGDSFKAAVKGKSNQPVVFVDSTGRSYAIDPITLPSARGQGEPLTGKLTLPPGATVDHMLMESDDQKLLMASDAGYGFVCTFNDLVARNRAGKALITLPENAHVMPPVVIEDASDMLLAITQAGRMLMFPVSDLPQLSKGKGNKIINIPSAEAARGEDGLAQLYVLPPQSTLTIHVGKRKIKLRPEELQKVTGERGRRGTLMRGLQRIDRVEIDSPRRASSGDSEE
T2 sequence (P20083 whole entry): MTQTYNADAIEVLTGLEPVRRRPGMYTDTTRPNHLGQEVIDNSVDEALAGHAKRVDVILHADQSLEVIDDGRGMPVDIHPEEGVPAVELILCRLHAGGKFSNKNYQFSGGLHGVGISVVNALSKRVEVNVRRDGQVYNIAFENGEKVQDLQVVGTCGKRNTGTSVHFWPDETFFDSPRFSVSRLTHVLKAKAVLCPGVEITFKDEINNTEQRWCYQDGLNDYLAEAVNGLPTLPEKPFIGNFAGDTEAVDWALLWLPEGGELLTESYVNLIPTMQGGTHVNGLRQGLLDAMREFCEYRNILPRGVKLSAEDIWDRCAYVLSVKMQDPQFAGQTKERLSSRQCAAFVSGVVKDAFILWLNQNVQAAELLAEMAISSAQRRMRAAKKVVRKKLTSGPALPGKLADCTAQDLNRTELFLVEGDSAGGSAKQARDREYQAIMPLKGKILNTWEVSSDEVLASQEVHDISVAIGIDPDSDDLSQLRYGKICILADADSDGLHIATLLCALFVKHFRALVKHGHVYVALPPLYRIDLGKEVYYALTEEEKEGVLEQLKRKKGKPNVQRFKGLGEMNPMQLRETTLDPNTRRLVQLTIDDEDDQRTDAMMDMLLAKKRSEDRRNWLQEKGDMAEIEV
Procedure: Topoisomerase IV was purified from E. coli overexpressing strains and the compounds were assayed according to literature conditions (Journal of Biological Chemistry, 1993;268(32):24481). The k-DNA decatenation assay was used. Briefly, reactions were performed in buffer R (40 mM Tris-HCl (pH 7.5), 6 mM MgCl2, 10 mM DTT, 100 mM potassium glutamate, 40 μM ATP, 50 μg/mL bovine serum albumin, 10 mM NaCl). 0.2 μg of kinetoplast DNA (k-DNA; TopoGen, Columbus, Ohio) was incubated with 5 ng of E. coli topoisomerase IV in the presence or absence of test compounds for 10 minutes at 37° C. Subsequently, one-tenth volume of 10×gel loading buffer (0.3% bromophenol blue, 16% Ficoll, 10 mM Na2HPO4) was added, and samples were loaded onto horizontal 0.8% agarose gels prepared with TBE buffer and containing 0.05 μg/mL of ethidium bromide. Electrophoresis was at 70 V for 2 to 4 hours. Gels were then examined by exposure to UV light. The concentration of drug inhibiting 50% of the decantenating activity of Topoisomerase IV is given as an IC50 and recorded in Table 2.

[9] = Mammalian cell cytotoxicity, colony formation; type: cell-based; details: Chinese hamster
Procedure: Mammalian Cell Cytotoxicity
The cells were grown overnight and treated with drug for 3 hours at 37° C., at which time the compound containing media was replaced with fresh media. The cells were then incubated for 5 days and examined for colony formation.

[10] = target: relaxed plasmid pBR322; test: DNA intercalation/binding assay; details: pBR322 with calf thymus topoisomerase I, 30 minutes at 37° C.; read-out: Drug Concentration causing 50% Intercalation of DNA
Procedure: Compounds of the present invention were evaluated for their ability to intercalate/bind to DNA, using the procedure described in Nucleic Acids Research, 1987;15(15):6713. Specifically, 0.2 μg of relaxed plasmid pBR322 (Lucent, Ltd., Leicester, UK) was treated with 2 U of calf thymus topoisomerase I (Gibco/BRL, Gaithersburg, Md.) in buffer I (10 mM Tris-HCl (Ph 7.5), 50 mM KCl, 5 mM MgCl2, 1 mM Na2EDTA, 15 μg/mL bovine serum albumin) in the presence or absence of test compounds. Reaction were incubated for 30 minutes at 37° C.; volumes were typically 30 μL. Reactions were terminated by the addition of sodium dodecylsulfate (SDS) to 1% and proteinase K to 0.5 mg/mL final concentrations. After an additional 30 minutes at 37° C., one-tenth volume of 10×concentrated loading buffer (0.3% bromophenol blue, 16% Ficoll, 10 mM Na2HPO4) was added, and samples were loaded onto horizontal 0.8% agarose gels prepared in TAE buffer. Electrophoresis was at 22 V for 14 hours. Gels were then stained by soaking for 1.5 hours in deionized water containing 0.2 μg/mL of ethidium bromide, followed by destaining in deionized water for an additional 1.5 hours. Gels were examined and photographed following exposure to UV light. The concentration of the drug which induced a 50% change in the DNA by intercalation is represented by an intercalation IC50 and is recorded in Table 4.

[11] = supercoiling of relaxed pBR322, 30 minutes at 37° C., read-out: DNA Gyrase IC50
[12] = k-DNA decatenation, 10 minutes at 37° C., read-out: Top IV IC50
[13] = Chinese hamster cells, drug for 3 hours at 37° C., colony formation after 5 days, read-out: 50% Cytotoxic Conc. in CHO cells

| Compound | Minimum Inhibitory Concentrations, B. subtilis RB1 [1] [µg/mL] | Minimum Inhibitory Concentrations, E. coli B90 [2] [µg/mL] | Minimum Inhibitory Concentrations, E. coli MC4100 [3] [µg/mL] | Minimum Inhibitory Concentrations, E. coli To1C [4] [µg/mL] | Minimum Inhibitory Concentrations, S. aureus 29213 [5] [µg/mL] | Minimum Inhibitory Concentrations, S. pyogenes C203 [6] [µg/mL] | pIC50 [7, 11] | pIC50 [8, 12] | MIC [1] [µg/mL] | MIC [2] [µg/mL] | MIC [3] [µg/mL] | MIC [5] [µg/mL] | MIC [6] [µg/mL] | IC50 at 3 h [9, 13] [µM] | MIC [4] [µg/mL] | pIC50 [10] | pIC50 [7] | pIC50 [8] | pIC50 ([8]; read-out: Top IV IC50) | IC50 at 3 h [9] [µM] |
| --- | --- | --- | --- | --- | --- | --- | --- | --- | --- | --- | --- | --- | --- | --- | --- | --- | --- | --- | --- | --- |
| 6-Hydroximino-2,5-dihydroxy-methyl-benzo[de]isoquinoline-1,3-dione [Example 120] | >64 | 2.0 | >64 | 1.0 | 16 | 64 | 4.52 | 4.60 |  |  |  |  |  |  |  |  |  |  |  |  |
| O=C1c2cccc3c(Br)ccc(c23)C(=O)N1O [Example 4, 6-Bromo-2-hydroxy-benzo[de]isoquinoline-1,3-dione] |  |  |  |  |  |  |  |  | 8 (≈ 27.4 µM) | 8 (≈ 27.4 µM) | > 64 | 16 (≈ 54.8 µM) | > 64 | > 250 |  |  |  |  |  |  |
| CSc1ccc2c3c(cccc13)C(=O)N(O)C2=O [Example 16, 2-Hydroxy-6-methylthio-benzo[de]isoquinoline-1,3-dione] |  |  |  |  |  |  |  |  | 2 (≈ 7.71 µM) | 1 (≈ 3.86 µM) | > 64 | 8 (≈ 30.9 µM) | 64 (≈ 247 µM) | > 250 | 1 (≈ 3.86 µM) | < 4.00 |  |  |  |  |
| Nc1c(Br)cc2c3c(cccc13)C(=O)N(O)C2=O [Example 26, 6-Amino-5-bromo-2-hydroxy-benzo[de]isoquinoline-1,3-dione] |  |  |  |  |  |  | 5.15 | 5.00 | 0.5 (≈ 1.63 µM) | 0.25 (≈ 0.814 µM) | 0.5 (≈ 1.63 µM) | 2 (≈ 6.51 µM) | > 64 |  |  | < 4.00 |  |  |  |  |
| COc1cc2c3c(cccc3c1Br)C(=O)N(O)C2=O [Example 32, 6-Bromo-2-hydroxy-5-methoxy-benzo[de]isoquinoline-1,3-dione] |  |  |  |  |  |  |  |  | 4 (≈ 12.4 µM) | 8 (≈ 24.8 µM) | > 64 | 8 (≈ 24.8 µM) | > 64 | > 250 | 4 (≈ 12.4 µM) | < 4.00 |  |  |  |  |
| CN1CCN(c2c(Br)cc3c4c(cccc24)C(=O)N(O)C3=O)CC1 [Example 50, 5-Bromo-2-hydroxy-6-(4-methylpiperazin-1-yl)-benzo[de]isoquinoline-1,3-dione] |  |  |  |  |  |  | 4.51 | 4.01 | 4 (≈ 10.3 µM) | 2 (≈ 5.13 µM) | 32 (≈ 82 µM) | 8 (≈ 20.5 µM) | 8 (≈ 20.5 µM) | 88 | 2 (≈ 5.13 µM) |  |  |  |  |  |
| NC1CCN(c2ccc3c4c(cccc24)C(=O)N(O)C3=O)C1 (stereo not drawn) [Example 62, 6-(3-Amino-pyrrolidin-1-yl)-2-hydroy-benzo[de]isoquinoline-1,3-dione] |  |  |  |  |  |  | 4.74 |  | 64 (≈ 215 µM) | 32 (≈ 108 µM) | > 64 | > 64 | 4 (≈ 13.5 µM) | 177 | 8 (≈ 26.9 µM) |  |  |  |  |  |
| CN1CCN(c2c(Cl)cc3c4c(cccc24)C(=O)N(O)C3=O)CC1 [Example 98] |  |  |  |  |  |  |  |  | 8 (≈ 23.1 µM) | 4 (≈ 11.6 µM) | 32 (≈ 92.5 µM) | 16 (≈ 46.3 µM) | 8 (≈ 23.1 µM) |  | 4 (≈ 11.6 µM) | 4.72 | 4.80 | 5.52 |  |  |
| O=C1c2cccc3c(Cl)c(Cl)cc(c23)C(=O)N1O [Example 103, 5,6-Dichloro-2-hydroxy-benzo[de]isoquinoline-1,3-dione] |  |  |  |  |  |  | 5.31 | 4.72 | 1 (≈ 3.55 µM) | 0.5 (≈ 1.77 µM) | 16 (≈ 56.7 µM) | 16 (≈ 56.7 µM) | > 64 |  | 0.5 (≈ 1.77 µM) | 4.59 |  |  |  |  |
| NC1CCN(c2c(Cl)cc3c4c(cc([N+](=O)[O-])cc24)C(=O)N(O)C3=O)C1.O=C(O)C(F)(F)F (stereo not drawn) [Example 115] | 2.0 | 0.5 | 8.0 | 0.5 | >64 | 4.0 | 6.15 |  |  |  |  |  |  |  |  |  |  |  | 5.05 |  |
| NC1CCN(c2ccc3c4c(cc(Cl)c(Cl)c24)C(=O)N(O)C3=O)C1.O=C(O)C(F)(F)F (stereo not drawn) [Example 117] | 2.0 | 0.5 | 2.0 | 0.25 | 8.0 | 8.0 | 5.00 |  |  |  |  |  |  |  |  |  |  |  | 5.40 |  |
| CN(C)CCN1C(=O)c2cc([N+](=O)[O-])cc3cc([N+](=O)[O-])cc(c23)C1=O [Ref #1, 5,8-dinitro-2-(2-dimethylaminoethyl)-benzo[de]isoquinoline-1,3-dione, reference compound] |  |  |  |  |  |  |  |  | 2 (≈ 5.58 µM) | 2 (≈ 5.58 µM) | 8 (≈ 22.3 µM) | 4 (≈ 11.2 µM) | 2 (≈ 5.58 µM) |  |  | > 5.00 |  |  |  | < 8 |
